According to US7816353B2 (Exelixis, Inc., priority 2003, dated 2010):

Experiments:
Format in all cases: biochemical
[1] = target: T1, PDK1 (Homo sapiens, UniProt O15530); assay: PDK1 Kinase Assay (Luciferase-Coupled Chemiluminescent Kinase assay, LCCA); conditions: human PDK1 kinase domain residues M51-T359; 0.5 μM ATP; read-out: PDK-1 IC50
T1 construct: human PDK1 kinase domain residues M51-T359; made in house
T1 sequence (O15530 51-359): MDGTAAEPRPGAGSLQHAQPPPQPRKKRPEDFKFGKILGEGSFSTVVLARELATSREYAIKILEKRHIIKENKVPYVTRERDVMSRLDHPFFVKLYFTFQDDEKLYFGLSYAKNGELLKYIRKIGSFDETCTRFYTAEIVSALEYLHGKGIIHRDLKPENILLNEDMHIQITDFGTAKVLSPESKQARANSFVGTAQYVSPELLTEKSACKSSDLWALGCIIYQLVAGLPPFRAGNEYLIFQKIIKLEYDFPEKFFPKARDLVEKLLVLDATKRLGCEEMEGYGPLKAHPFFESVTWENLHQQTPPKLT
Procedure: (§1) Kinase activity and compound inhibition are investigated using one or more of the three assay formats described below. The ATP concentrations for each assay are selected to be close to the Michaelis-Menten constant (KM) for each individual kinase. Dose-response experiments are performed at 10 different inhibitor concentrations in a 384-well plate format. The data are fitted to four-parameter equation (2) below; where Y is the observed signal, X is the inhibitor concentration, Min is the background signal in the absence of enzyme (0% enzyme activity), Max is the signal in the absence of inhibitor (100% enzyme activity), IC50 is the inhibitor concentration at 50% enzyme inhibition and H represents the empirical Hill's slope to measure the cooperativity. Typically H is close to unity. Y=Min+(Max−Min)/(1+(X/IC50)^H) Equation (2) p70S6 Kinase Assay
Biochemical activity of PDK1 kinase was assessed using a Luciferase-Coupled Chemiluminescent Kinase assay (LCCA) format. Kinase activity was measured as the percent ATP remaining following the kinase reaction. Remaining ATP was detected by luciferase-luciferin-coupled chemiluminescence. Specifically, the reaction was initiated by mixing test compounds, 0.5 μM ATP, 0.6 μM PDKtide peptide and 6 nM PDK1 (baculovirus expressed human PDK1 kinase domain residues M51-T359) in a 20 uL assay buffer (20 mM Hepes pH 7.5, 1 mM CaCl2, 0.03% CHAPS, 2 mM DTT). The mixture is incubated at ambient temperature for 3 hours after which 20 μL luciferase-luciferin mix is added and the chemiluminescent signal read using a Wallac Victor2 reader. The luciferase-luciferin mix consists of 50 mM HEPES, pH 7.8, 8.5 μg/mL oxalic acid (pH 7.8), 5 (or 50) mM DTT, 0.4% Triton X-100, 0.25 mg/mL coenzyme A, 63 uM AMP, 28 μg/mL luciferin and 40,000 units/mL luciferase.

[2] = target: T2, Akt1 (Homo sapiens, UniProt P31749); assay: Akt1 Kinase Assay (Luciferase-Coupled Chemiluminescent Kinase assay, LCCA); conditions: human Akt1 kinase domain residues R144-A480, activated with PDK1; 1 μM ATP; read-out: Akt-1 IC50
T2 construct: made in house
Procedure: as §1
Biochemical activity of Akt1 kinase was assessed using a Luciferase-Coupled Chemiluminescent Kinase assay (LCCA) format. Kinase activity was measured as the percent ATP remaining following the kinase reaction. Remaining ATP was detected by luciferase-luciferin-coupled chemiluminescence. Specifically, the reaction was initiated by mixing test compounds, 1 μM ATP, 5 μM crosstide peptide and 1.3 nM Akt1 (baculovirus expressed human Akt1 kinase domain residues R144-A480, activated with PDK1) in a 20 uL assay buffer (20 mM Tris-HCL pH 7.5, 10 mM MgCl2, 0.01% Triton X-100, 1 mM DTT, 3 mM MnCl2). The mixture is incubated at ambient temperature for 3 hours after which 20 μL luciferase-luciferin mix is added and the chemiluminescent signal read using a Wallac Victor2 reader. The luciferase-luciferin mix consists of 50 mM HEPES, pH 7.8, 8.5 μg/mL oxalic acid (pH 7.8), 5 (or 50) mM DTT, 0.4% Triton X-100, 0.25 mg/mL coenzyme A, 63 uM AMP, 28 μg/mL luciferin and 40,000 units/mL luciferase.

[3] = target: T3, p70S6K (Homo sapiens, UniProt P23443, T412E); assay: p70S6 Kinase Assay (Luciferase-Coupled Chemiluminescent Kinase assay, LCCA); conditions: human p70S6 kinase domain residues 1-421, T412E; 5 μM ATP; read-out: p70S6K IC50
T3 construct: human p70S6 kinase domain residues 1-421, containing a T412E mutation; made in house
Method in brief: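 Luciferase-coupled chemiluminescence measured percent ATP remaining after the 2 h kinase reaction at ambient temperature, with ATP near the kinase's KM. Ten inhibitor concentrations were tested. IC50 was obtained from a Hill-equation fit.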

T3 sequence (P23443 1-421 T412E): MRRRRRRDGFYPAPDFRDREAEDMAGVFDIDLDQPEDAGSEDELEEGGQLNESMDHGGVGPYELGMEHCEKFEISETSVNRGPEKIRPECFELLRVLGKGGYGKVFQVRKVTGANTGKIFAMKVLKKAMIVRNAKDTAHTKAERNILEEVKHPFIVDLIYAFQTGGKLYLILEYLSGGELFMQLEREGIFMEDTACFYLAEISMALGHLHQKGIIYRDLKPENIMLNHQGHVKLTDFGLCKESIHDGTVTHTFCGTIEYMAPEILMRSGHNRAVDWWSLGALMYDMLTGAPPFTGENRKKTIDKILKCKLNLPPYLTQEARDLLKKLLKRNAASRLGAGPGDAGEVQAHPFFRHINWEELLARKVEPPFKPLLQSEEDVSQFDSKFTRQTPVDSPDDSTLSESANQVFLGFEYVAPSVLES
T2 sequence (P31749 144-480): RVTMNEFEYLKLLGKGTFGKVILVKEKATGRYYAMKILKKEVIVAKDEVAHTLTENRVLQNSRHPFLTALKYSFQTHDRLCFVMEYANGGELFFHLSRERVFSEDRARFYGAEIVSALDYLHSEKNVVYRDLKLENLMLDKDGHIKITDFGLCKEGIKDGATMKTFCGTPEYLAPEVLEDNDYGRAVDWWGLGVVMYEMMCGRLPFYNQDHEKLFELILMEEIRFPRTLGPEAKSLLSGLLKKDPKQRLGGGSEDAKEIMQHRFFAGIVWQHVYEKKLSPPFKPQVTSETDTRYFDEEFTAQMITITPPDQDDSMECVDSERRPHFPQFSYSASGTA

Structure (SMILES)	IC50 [1] [nM]	IC50 [2] [nM]	IC50 [3] [nM]
CSc1nc(N)nc(N[C@@H](COC(C)=O)C(=O)Nc2cccc(C(F)(F)F)c2)c1C#N [Example 138, (2S0-2-{[2-amino-5-cyano-6-(methylthio)pyrimidin-4-yl]amino}-3-oxo-3-{[3-(trifluoromethyl)phenyl]amino}propyl acetate]	> 2000	> 2000	50 to 500
Nc1cc(SCC(=O)Nc2ccc(F)c(C(F)(F)F)c2)nc(N)n1 [Example 32, 2-[(2,6-diaminopyrimidin-4-yl)thio]-N-[4-fluoro-3-(trifluoromethyl)phenyl]acetamide]	> 2000	> 2000	< 50
COc1nc(N)nc(NNC(=O)Nc2cccc(C(F)(F)F)c2)c1C#N [Example 140, 2-[2-amino-5-cyano-6-(methyloxy)pyrimidin-4-yl]-N-[3-(trifluoromethyl)phenyl]hydrazinecarboxamide]	> 2000	> 2000	50 to 500
CSc1nc(N)nc(N(C)[C@@H](C)C(=O)Nc2cccc(Br)c2)c1C#N [Example 133, N~2~-[2-amino-5cyano-6-(methylthio)pyrimidin-4-yl]-N-(3-bromophenyl)-N~2~-methyl-L-alaninamide]	> 2000	> 2000	< 50
CSc1cc(OCC(=O)Nc2cccc(C(F)(F)F)c2)nc(N)n1	> 2000	> 2000	< 50
CSc1nc(N)nc(SCC(=O)Nc2ccc(Cl)c(C(F)(F)F)c2)c1C#N [Example 34, 2-{[2-amino-5-cyano-6-(methylthio)pyrimidin-4-yl]thio}-N-[4-chloro-3-(trifluoromethyl)phenyl]acetamide]	> 2000	> 2000	< 50
CCCCOc1cccc(NC(=O)CSc2nc(N)nc(SC)c2C#N)c1 [Example 22, 2-{[2-amino-5-cyano-6-(methylthio)pyrimidin-4-yl]thio}-N-[3-(butyloxy)phenyl]acetamide]	> 2000	> 2000	< 50
CSc1nc(COC(=O)Nc2cccc(C(F)(F)F)c2)cc(NCc2ccccc2)n1 [Example 40, {2-(methylthio)-6-[(phenylmethyl)amino]pyrimidin-4-yl}methyl [3-(trifluoromethyl)phenyl]carbamate]	> 2000	> 2000	< 50
